Test results taken from article PMC13492380, “Dissecting Structural and Functional Determinants of Microtubules Stabilization through Guided Chemical Modulation” (Journal of Medicinal Chemistry, 2026).

Test system: Tau-mCherry (Tau 441 isoform) on stabilized MTs from porcine brain tubulin
Assay: Tau-mCherry binding to stabilized MTs (TIRF)
Assay type: biochemical
Conditions: for initial Tau envelope coverage / Tau envelope growth velocity: 10 nM Tau-mCherry; for initial Tau envelope coverage: MTs polymerized in the presence of drug; for Tau-mCherry coating of stabilized MTs / Tau envelope coverage of MT length: 40 nM Tau-mCherry
From the text: Previous studies in vitro have shown that Tau molecules strongly prefer compacted GDP lattices. Tau binds cooperatively to MT surfaces, resulting in a cohesive layer depending on tau-tau interactions, termed MT envelope, which selectively regulates access to MT lattices, and shields MTs from severing enzymes. − On expanded PTX-MTs, Tau envelope also forms and the lattice can get locally compacted. To further explore how MT lattice structure influences Tau binding, we employed an in vitro reconstitution assay. We deposited stabilized MTs in a flow chamber, and visualized them via interference reflection microscopy (Figure C). We then added 10 nM Tau-mCherry (labeled purified Tau 441 isoform at the C-terminus with mCherry) and monitored its association with MTs using time-lapse TIRF microscopy. After 4 min, we increased Tau concentration to 40 nM, and continued imaging for an additional 4 min. We measured fluorescence intensities along MTs to quantify Tau binding (Movies S16–S27). […] PTXpost-MTs also supported […] faster envelope growth (0.20 ± 0.02 μm/s versus 0.054 ± 0.006 μm/s for PTXpre-MTs, Figure H).
Total Internal Reflection Fluorescence microscopy experiments were performed on an inverted widefield microscope Nikon-Ti2 E, equipped with a motorized XY-stage, a perfect focus system, Apo TIRF 60× oil NA 1.49 objective and PRIME BSY (Teledyne Photometrics) camera. MTs were visualized using Interference Reflection microscopy (IRM) and fluorescently labeled proteins were visualized sequentially by switching between microscope filter cubes for GFP and mCherry channels. The microscopes were controlled using NIS Elements software (Nikon). All experiments were conducted at RT.
Microscopy chambers were prepared from two sandwiched silanized glass coverslips (22 × 22 mm^2 and 18 × 18 mm^2) attached through parafilm strips (heated for 15–20 s at 60 °C and gently pressed together) to form ∼2.5 mm wide parallel flow channels. Prior to the chamber assembly, the coverslips were washed in 3 M KOH, cleaned using Zepto plasma cleaner (Diener electronic) and silanized with hexamethyldisilazane. Flow channels were first incubated with 40 μgml^–1 antibiotin antibodies (Sigma, B3640) in PBS for 10 min, followed by incubation with 1% Pluronic F127 (Sigma-Aldrich, P2443) in PBS for at least 1 h. F127 was washed with BRB80 (80 mM PIPES, 1 mM EGTA, 1 mM MgCl2, pH 6.9).
Porcine brain tubulin was isolated using the high-molarity PIPES procedure then mixed with Biotin labeled tubulin (Cytoskeleton Inc., T333P) in 1:49 ratio. All MTs were polymerized using 2% biotin-labeled tubulin. […] Polymerized MTs were centrifuged for 30 min at 18,000g in a Microfuge 18 Centrifuge (Beckman Coulter’s). […] Drug stabilized preassembly MTs (polymerized in the presence of drugs and GTP, stored and imaged in presence of drug) were polymerized from 4 mg mL^–1 biotinylated tubulin for 30 min at 37 °C in BRB80 supplemented with 4 mM MgCl2, 40 μM drug of interest in 5% DMSO, and 1 mM GTP. Polymerized MTs were centrifuged for 30 min at 18,000g in a Microfuge 18 Centrifuge (Beckman Coulter’s). […] GMPCPP stabilized MTs (GMPCPP polymerized) were assembled from 4 mg mL^–1 biotinylated tubulin for 2 h at 37 °C in BRB80 supplemented with 1 mM MgCl2 and 1 mM GMPCPP (Jena Bioscience, NU-405). Polymerized MTs were centrifuged for 30 min at 18,000g in a Microfuge 18 Centrifuge (Beckman Coulter’s) and pellets were resuspended and kept in BRB80.
Stabilized MTs were flushed into the channel and incubated for 15–30 s to allow for surface attachment. Unbound MTs were removed by washing with BRB80 supplemented with 10 μM of drug. Prior the experiment, the solution was exchanged by motility buffer, MB (BRB80 containing 10 mM DTT, 20 mM D-glucose, 0.1% Tween-20, 0.5 mg/mL casein, 1 mM Mg-ATP, 0.02 mg/mL catalase, 0.22 mg/mL glucose oxidase, 10 μM drug). Subsequently, a solution containing either 1.08 nM Kif5b-EGFP or 10/40 nM mCherry-Tau in MB was introduced into the chamber. […]

[1] = MTs polymerized in the presence of drug (preassembly)
[2] = MTs stabilized with PTX after polymerization (PTXpost)

| Structure (SMILES) | initial Tau envelope coverage | Tau envelope growth velocity [1] | Tau-mCherry coating of stabilized MTs | Tau envelope growth velocity [2] | Tau envelope coverage of MT length (MTs assembled in the presence of PTX (PTXpre)) | Tau envelope coverage of MT length [2] |
| --- | --- | --- | --- | --- | --- | --- |
| CC(=O)OC1C(=O)C2(C)C(OC(=O)CCCCC(=O)OC3CCc4ccccc43)CC3OCC3(OC(C)=O)C2C(OC(=O)c2ccccc2)C2(O)CC(OC(=O)C(O)C(NC(=O)c3ccccc3)c3ccccc3)C(C)=C1C2(C)C (stereo not shown) [1a, 7-O-(6″-O-(2‴,3‴-Dihydroinden-1‴-yl)hexanedioyl) Paclitaxel] | 40% | 1.5 ± 0.1 μm/s | fully coated | – | – | – |
| COc1ccc2c(c1)CC(NC(=O)CCCCCCCC(=O)OC1CC3OCC3(OC(C)=O)C3C(OC(=O)c4ccccc4)C4(O)CC(OC(=O)C(O)C(NC(=O)c5ccccc5)c5ccccc5)C(C)=C(C(OC(C)=O)C(=O)C13C)C4(C)C)CC2 [1b, 7-O-((S)-9″-(7‴-Methoxy-1‴,2‴,3‴,4‴-tetrahydronaphthalen-2‴-yl)amino) −9″-oxononanoyl) Paclitaxel] | 20% | 0.46 ± 0.05 μm/s | fully coated | – | – | – |
| CC(=O)O[C@H]1C(=O)[C@]2(C)[C@@H](OC(=O)[C@H](C)NC(=O)c3ccc(-c4c5cc(F)c(=O)cc-5oc5cc(O)c(F)cc45)c(C(=O)O)c3)C[C@H]3OC[C@@]3(OC(C)=O)[C@H]2[C@H](OC(=O)c2ccccc2)[C@]2(O)C[C@H](OC(=O)[C@H](O)[C@@H](NC(=O)c3ccccc3)c3ccccc3)C(C)=C1C2(C)C [FTX2, Flutax2] | 60% | 1.37 ± 0.09 μm/s | fully coated | – | – | – |
| CC(=O)O[C@H]1C(=O)[C@@]2(C)[C@H]([C@H](OC(=O)c3ccccc3)[C@]3(O)C[C@H](OC(=O)[C@H](O)[C@@H](NC(=O)c4ccccc4)c4ccccc4)C(C)=C1C3(C)C)[C@]1(OC(C)=O)CO[C@@H]1C[C@@H]2O [PTX, Paclitaxel] | – | 0.054 ± 0.006 μm/s | – | 0.20 ± 0.02 μm/s | 30% | up to 60% |
